Assays:
[1] = biological target: Transient receptor potential cation channel subfamily V member 1 (Rattus norvegicus) (UniProt O35433); test: Agonist activity at rat TRPV1 receptor expressed in CHO cells by Ca2+ uptake assay; format: functional, cell-based
[2] = biological target: T1, Transient receptor potential cation channel subfamily V member 1 (Rattus norvegicus, UniProt O35433); test: Antagonist activity at rat TRPV1 receptor expressed in CHO cells by Ca2+ uptake assay
[3] = biological target: T1, Transient receptor potential cation channel subfamily V member 1; test: Displacement of [3H]RTX from rat TRPV1 receptor expressed in CHO cells; format: cell-based

T1 sequence (O35433 whole entry): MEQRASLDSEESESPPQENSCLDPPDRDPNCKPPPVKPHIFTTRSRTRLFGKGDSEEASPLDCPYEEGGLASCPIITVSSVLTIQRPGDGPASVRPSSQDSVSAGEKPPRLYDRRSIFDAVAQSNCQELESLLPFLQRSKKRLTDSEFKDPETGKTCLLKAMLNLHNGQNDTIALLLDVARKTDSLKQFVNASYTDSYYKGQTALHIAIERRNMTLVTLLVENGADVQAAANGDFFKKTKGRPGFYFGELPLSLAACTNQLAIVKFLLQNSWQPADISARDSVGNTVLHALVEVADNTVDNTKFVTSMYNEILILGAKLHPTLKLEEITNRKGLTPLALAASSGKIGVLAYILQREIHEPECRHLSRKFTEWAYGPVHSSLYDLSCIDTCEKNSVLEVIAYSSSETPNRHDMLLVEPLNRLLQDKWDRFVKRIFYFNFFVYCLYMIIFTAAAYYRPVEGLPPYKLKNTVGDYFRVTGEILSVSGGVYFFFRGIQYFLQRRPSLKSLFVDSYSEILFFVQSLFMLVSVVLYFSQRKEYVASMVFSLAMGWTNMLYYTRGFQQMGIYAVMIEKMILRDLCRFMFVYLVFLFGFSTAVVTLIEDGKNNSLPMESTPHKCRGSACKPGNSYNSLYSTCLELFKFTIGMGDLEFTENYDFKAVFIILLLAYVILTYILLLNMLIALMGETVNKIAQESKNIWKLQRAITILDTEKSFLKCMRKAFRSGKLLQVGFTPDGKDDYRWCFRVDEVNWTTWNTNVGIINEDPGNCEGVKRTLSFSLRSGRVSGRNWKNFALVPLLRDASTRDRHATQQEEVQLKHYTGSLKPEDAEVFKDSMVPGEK
Chain of Transient receptor potential cation channel subfamily V member 1 (Rattus norvegicus) (O35433 whole entry): as above

Row | SMILES | Activity [1] | Ki [2] | Ki [3]
1 | C[C@H](/N=C(\S)NCc1ccc(C(C)(C)C)cc1)c1ccc(NS(C)(=O)=O)cc1 | 8% | – | –
2 | C[C@@H](NC(=S)NCc1ccc(C(C)(C)C)cc1)c1ccc(NS(C)(=O)=O)c(F)c1 | – | 0.037 µM | –
3 | C[C@H](NC(=S)NCc1ccc(C(C)(C)C)cc1)c1ccc(NS(C)(=O)=O)c(F)c1 | – | 2.67 µM | 2.14 µM
4 | CC(C)(C)c1ccc(CNC(=S)NC(C)(C)c2ccc(NS(C)(=O)=O)cc2)cc1 | – | 1.8 µM | –
5 | COc1cc(CNC(=S)NCc2ccc(C(C)(C)C)cc2)ccc1NS(C)(=O)=O | 18% | – | 0.051 µM
6 | C[C@H](NC(=S)NCc1ccc(C(C)(C)C)cc1)c1ccc(NS(C)(=O)=O)cc1 | – | – | 3.95 µM
7 | CN(C)CCCN1c2ccccc2Sc2ccc(Cl)cc21 [CHLORPROMAZINE] | – | 0.52 µM | 1.3 µM
8 | CC(NC(=S)NCc1ccc(C(C)(C)C)cc1)c1ccc(NS(C)(=O)=O)cc1 (configuration not stated) | – | 0.0147 µM | 0.0593 µM

— ChEMBL document CHEMBL1143756, “Alpha-substituted N-(4-tert-butylbenzyl)-N'-[4-(methylsulfonylamino)benzyl]thiourea analogues as potent and stereospecific TRPV1 antagonists” (Bioorg Med Chem, 2007)
